Results taken from US12589156B2, “Benzimidazole and benzimidazolone based protac compounds for the targeted degradation of leucine rich repeat kinase 2 (LRRK2)” (Arvinas Operations, Inc., priority 2023, dated 2026).

Molecular target: T1, WT LRRK2 (Homo sapiens, UniProt Q5S007)
T1 construct: endogenous in cells; host or cells: HEK293 (endogenous LRRK2 gene knock-in tagged with HiBit; stably expressing CMV-driven firefly luciferase)
Assay: LRRK2 HiBit degradation assay (Nano-Glo Dual Luciferase) in HEK293 cells with HiBit-tagged endogenous LRRK2
Format: cell-based
Settings: for Dmax / WT LRRK2 **Dmax (%): maximal degradation
How it was run: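 HEK293 cells carrying endogenous C-terminally HiBit-tagged LRRK2 and stably expressing CMV-driven firefly luciferase were treated for 24 h at 37° C with an 11-point 1:3 series from a 1 μM final top concentration. Nano-Glo Dual Luciferase read LRRK2-HiBit against firefly signal. Alamar Blue gave viability, and signals were normalized to DMSO median before curve fitting.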

[1] = HEK293, Table 2, HiBit-tagged LRRK2 in HEK293 cells, 24 hours treatment
[2] = Table 2, HiBit-tagged LRRK2 in HEK293 cells, 24 hours treatment, starting concentration 1 μM
[3] = HEK293, Table 3, comparison with direct comparators
[4] = Table 3, comparison with direct comparators, HiBit-tagged LRRK2 in HEK293 cells, 24 hours treatment
[5] = Table 2, HiBit-tagged LRRK2 in HEK293 cells, 24 hours treatment

T1 sequence (Q5S007 whole entry): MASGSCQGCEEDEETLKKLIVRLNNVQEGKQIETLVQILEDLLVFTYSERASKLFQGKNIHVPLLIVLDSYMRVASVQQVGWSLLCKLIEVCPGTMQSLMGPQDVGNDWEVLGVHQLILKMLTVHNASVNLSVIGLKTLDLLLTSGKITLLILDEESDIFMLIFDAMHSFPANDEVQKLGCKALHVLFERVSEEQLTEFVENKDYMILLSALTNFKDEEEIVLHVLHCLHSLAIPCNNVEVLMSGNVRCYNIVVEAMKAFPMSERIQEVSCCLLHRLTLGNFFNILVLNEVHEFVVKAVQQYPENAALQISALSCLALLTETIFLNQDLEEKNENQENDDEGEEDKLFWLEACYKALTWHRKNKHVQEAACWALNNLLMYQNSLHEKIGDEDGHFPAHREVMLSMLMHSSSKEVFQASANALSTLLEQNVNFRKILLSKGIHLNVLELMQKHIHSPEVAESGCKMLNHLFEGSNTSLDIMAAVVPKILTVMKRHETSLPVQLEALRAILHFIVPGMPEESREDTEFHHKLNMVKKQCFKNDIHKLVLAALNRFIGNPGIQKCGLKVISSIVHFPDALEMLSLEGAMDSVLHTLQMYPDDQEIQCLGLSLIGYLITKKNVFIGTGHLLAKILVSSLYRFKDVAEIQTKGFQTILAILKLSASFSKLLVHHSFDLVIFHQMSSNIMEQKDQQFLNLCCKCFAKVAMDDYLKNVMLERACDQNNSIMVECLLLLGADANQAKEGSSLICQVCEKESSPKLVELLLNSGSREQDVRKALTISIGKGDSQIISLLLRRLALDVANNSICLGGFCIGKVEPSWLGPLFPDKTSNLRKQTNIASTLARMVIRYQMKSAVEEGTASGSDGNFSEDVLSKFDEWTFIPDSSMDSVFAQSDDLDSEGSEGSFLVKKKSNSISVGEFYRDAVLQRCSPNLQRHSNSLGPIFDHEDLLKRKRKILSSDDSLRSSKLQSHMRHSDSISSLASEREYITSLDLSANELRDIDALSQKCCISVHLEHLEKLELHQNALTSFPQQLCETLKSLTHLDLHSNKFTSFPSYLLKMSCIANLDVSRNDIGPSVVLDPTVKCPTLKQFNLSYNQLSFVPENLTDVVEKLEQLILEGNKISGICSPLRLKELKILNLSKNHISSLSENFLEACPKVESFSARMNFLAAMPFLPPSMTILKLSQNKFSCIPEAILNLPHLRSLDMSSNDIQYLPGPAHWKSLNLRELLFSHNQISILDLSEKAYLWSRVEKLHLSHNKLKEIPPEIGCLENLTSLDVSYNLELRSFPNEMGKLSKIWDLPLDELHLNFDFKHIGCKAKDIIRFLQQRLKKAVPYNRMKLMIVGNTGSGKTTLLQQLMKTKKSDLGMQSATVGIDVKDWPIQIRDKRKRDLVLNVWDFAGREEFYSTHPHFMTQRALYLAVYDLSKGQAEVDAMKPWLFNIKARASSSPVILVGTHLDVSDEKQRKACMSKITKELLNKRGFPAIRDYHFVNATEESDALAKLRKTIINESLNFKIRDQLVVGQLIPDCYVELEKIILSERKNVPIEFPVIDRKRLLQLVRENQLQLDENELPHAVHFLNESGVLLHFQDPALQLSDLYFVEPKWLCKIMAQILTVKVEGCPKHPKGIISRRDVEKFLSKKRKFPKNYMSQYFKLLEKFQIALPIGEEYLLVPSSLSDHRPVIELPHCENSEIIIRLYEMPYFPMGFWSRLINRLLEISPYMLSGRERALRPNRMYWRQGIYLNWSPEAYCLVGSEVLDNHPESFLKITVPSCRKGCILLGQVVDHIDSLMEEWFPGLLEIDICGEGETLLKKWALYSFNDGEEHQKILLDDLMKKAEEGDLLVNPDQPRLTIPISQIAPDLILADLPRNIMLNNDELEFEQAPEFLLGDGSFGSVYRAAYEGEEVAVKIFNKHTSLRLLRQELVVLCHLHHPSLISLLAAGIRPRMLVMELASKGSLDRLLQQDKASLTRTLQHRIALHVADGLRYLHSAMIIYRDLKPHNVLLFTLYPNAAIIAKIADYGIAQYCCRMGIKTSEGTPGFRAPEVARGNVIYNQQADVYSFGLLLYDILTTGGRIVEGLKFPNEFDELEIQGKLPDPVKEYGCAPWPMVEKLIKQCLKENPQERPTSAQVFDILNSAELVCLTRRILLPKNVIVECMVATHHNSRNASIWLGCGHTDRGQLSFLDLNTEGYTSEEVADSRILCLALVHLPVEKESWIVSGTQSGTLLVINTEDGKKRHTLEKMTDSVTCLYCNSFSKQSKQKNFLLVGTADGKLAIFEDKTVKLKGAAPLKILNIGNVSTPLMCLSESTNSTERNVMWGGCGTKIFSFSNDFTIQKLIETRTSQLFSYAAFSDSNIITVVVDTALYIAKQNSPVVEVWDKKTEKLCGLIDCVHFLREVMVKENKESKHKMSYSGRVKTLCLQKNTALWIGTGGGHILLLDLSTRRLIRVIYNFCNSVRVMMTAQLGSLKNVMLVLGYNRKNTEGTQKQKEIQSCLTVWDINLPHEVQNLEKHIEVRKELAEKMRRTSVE

Row | SMILES | Dmax [1] [%] | DC50 [2] [nM] | Dmax [3] [%] | DC50 [4] [nM] | WT LRRK2 **Dmax (%) [5] [%]
1 | Cn1c(=O)n(C2CCC(=O)NC2=O)c2ccc(N3CCC(OC4CCC(CN5CCN(c6cc(-c7n[nH]c8ccc(OC(C)(C)C)cc78)ncn6)CC5)CC4)CC3)cc21 (stereo not drawn) [Compound 54, rel-3-[3-methyl-2-oxo-5-(4-{[(1r,4r)-4-[(4-{6-[5-(tert-butoxy)-1H-indazol-3-yl]pyrimidin-4-yl}piperazin-1-yl)methyl]cyclohexyl]oxy}piperidin-1-yl)-2,3-dihydro-1H-1,3-benzodiazol-1-yl]piperidine-2,6-dione] |  | 0.33 |  |  | 53
2 | CC(C)Oc1ccc2[nH]nc(-c3cc(N4CCN(CC5CCC(OC6CCN(c7ccc8c(c7)n(C)c(=O)n8C7CCC(=O)NC7=O)CC6)CC5)CC4)ncn3)c2c1 (stereo not drawn) [Compound 55, rel-3-[3-methyl-2-oxo-5-(4-{[(1r,4r)-4-[(4-{6-[5-(propan-2-yloxy)-1H-indazol-3-yl]pyrimidin-4-yl}piperazin-1-yl)methyl]cyclohexyl]oxy}piperidin-1-yl)-2,3-dihydro-1H-1,3-benzodiazol-1-yl]piperidine-2,6-dione] |  | 1.5 |  |  | 53
3 | CC1(Oc2ccc3[nH]nc(-c4cc(N5CCC(CN6CCN(CC7CCN(c8cccc9c8ncn9C8CCC(=O)NC8=O)CC7)CC6(C)C)CC5)ncn4)c3c2)CC1 (stereo not shown) [Compound 69, 3-{4-[4-({3,3-dimethyl-4-[(1-{6-[5-(1-methylcyclopropoxy)-1H-indazol-3-yl]pyrimidin-4-yl}piperidin-4-yl)methyl]piperazin-1-yl}methyl)piperidin-1-yl]-1H-1,3-benzodiazol-1-yl}piperidine-2,6-dione] | 50 | 5 | 50 | 5 | 
4 | CC1(Oc2ccc3[nH]nc(-c4cc(N5CCC(CN6CCN(CC7CCN(c8cccc9c8ncn9C8CCC(=O)NC8=O)CC7)CC6)CC5)ncn4)c3c2)CC1 (stereo not shown) [Compound 70, 3-{4-[4-({4-[(1-{6-[5-(1-methylcyclopropoxy)-1H-indazol-3-yl]pyrimidin-4-yl}piperidin-4-yl)methyl]piperazin-1-yl}methyl)piperidin-1-yl]-1H-1,3-benzodiazol-1-yl}piperidine-2,6-dione] | 33 | 20 | 33 | 20 | 

Continued, in another order:

Row | Dmax [1] [%] | DC50 [2] [nM] | Dmax [3] [%] | DC50 [4] [nM] | SMILES | WT LRRK2 **Dmax (%) [5] [%]
5 | 100 | 24 |  |  | Cn1c(=O)n(C2CCC(=O)NC2=O)c2cccc(N3CCC(CN4CCN(CC5CCN(c6cc(-c7n[nH]c8cnc(OC9(C)CC9)cc78)ncn6)CC5)C(C)(C)C4)CC3)c21 (stereo not shown) [Compound 47, 3-{4-[4-({3,3-dimethyl-4-[(1-{6-[5-(1-methylcyclopropoxy)-1H-pyrazolo[3,4-c]pyridin-3-yl]pyrimidin-4-yl}piperidin-4-yl)methyl]piperazin-1-yl}methyl)piperidin-1-yl]-3-methyl-2-oxo-2,3-dihydro-1H-1,3-benzodiazol-1-yl}piperidine-2,6-dione] | 
6 | 56 | 0.14 | 56 | 0.14 | Cn1c(=O)n(C2CCC(=O)NC2=O)c2ccc(N3CCC(CN4CCN(CC5CCN(c6cc(-c7n[nH]c8cnc(OC9(C)CC9)cc78)ncn6)CC5)C(C)(C)C4)CC3)cc21 (stereo not shown) [Compound 48, 3-{5-[4-({3,3-dimethyl-4-[(1-{6-[5-(1-methylcyclopropoxy)-1H-pyrazolo[3,4-c]pyridin-3-yl]pyrimidin-4-yl}piperidin-4-yl)methyl]piperazin-1-yl}methyl)piperidin-1-yl]-3-methyl-2-oxo-2,3-dihydro-1H-1,3-benzodiazol-1-yl}piperidine-2,6-dione] | 
7 | 64 | 1.1 |  |  | CC(C)n1c(=O)n(C2CCC(=O)NC2=O)c2ccc(N3CCC(CN4CCN(CC5CCN(c6cc(-c7n[nH]c8cnc(OC9(C)CC9)cc78)ncn6)CC5)C(C)(C)C4)CC3)cc21 (stereo not shown) [Compound 51, 3-{5-[4-({3,3-dimethyl-4-[(1-{6-[5-(1-methylcyclopropoxy)-1H-pyrazolo[3,4-c]pyridin-3-yl]pyrimidin-4-yl}piperidin-4-yl)methyl]piperazin-1-yl}methyl)piperidin-1-yl]-2-oxo-3-(propan-2-yl)-2,3-dihydro-1H-1,3-benzodiazol-1-yl}piperidine-2,6-dione] | 
8 | 35 | 1.2 |  |  | Cn1c(=O)n(C2CCC(=O)NC2=O)c2ccc(N3CCC(O[C@H]4CC[C@@H](CN5CCN(c6cc(-c7n[nH]c8cnc(OC9(C)CC9)cc78)ncn6)CC5)CC4)CC3)cc21 (stereo partly shown) [Compound 68, 3-[3-methyl-2-oxo-5-(4-{[(1s,4s)-4-[(4-{6-[5-(1-methylcyclopropoxy)-1H-pyrazolo[3,4-c]pyridin-3-yl]pyrimidin-4-yl}piperazin-1-yl)methyl]cyclohexyl]oxy}piperidin-1-yl)-2,3-dihydro-1H-1,3-benzodiazol-1-yl]piperidine-2,6-dione] | 
